From the supplement of paper PMC7695840
Structures can show the parent of a compound that is named as a salt.

Key:
[1] = tested on: Staphylococcus aureus MW2 delta-mecA (mecA-); experiment: IC50 (growth, competition assay); settings: cefoxitin: subinhibitory
In short: (§1)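 Pre-induced, 1:1-mixed fluorescent S. aureus MW2 mecA+ and ΔmecA strains were grown 20 h at 37 °C, 90% humidity, unshaken, in LB with a daily-set subinhibitory cefoxitin dose, in 1536-well plates. Compounds were given on five- or nine-point 2-fold gradients, in two dye-swapped replicates. DsRed (540/590) and GFP (485/520) were scaled per plate between single-strain control medians, with No Treatment then set to 0.5. Per-strain IC50 was the dose halving the No Treatment signal, or the maximal signal.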

[2] = tested on: Staphylococcus aureus MW2 (mecA+); experiment: IC50 (growth, competition assay); settings: cefoxitin: subinhibitory
In short: as §1

| Compound | IC50 ([1]; fluorescent label: DsRed) | IC50 ([1]; fluorescent label: GFP) | IC50 ([2]; fluorescent label: DsRed) | IC50 ([2]; fluorescent label: GFP) |
| --- | --- | --- | --- | --- |
| C=C[C@](C)(O)CC[C@@H]1[C@@]2(C)CCCC(C)(C)[C@@H]2CC[C@@]1(C)O [Sclareol] | 25 µM | 19.7 µM | 99.3 µM | 65.2 µM |
| CCN(CC)CCOc1ccc(C(=C(Cl)c2ccccc2)c2ccccc2)cc1 [Clomifene citrate (Serophene)] | < 9.85 µM | < 9.85 µM | 15 µM | 14.9 µM |
| Clc1ccc(C(c2ccc(Cl)cc2)[n+]2ccn(CC(OCc3ccc(Cl)cc3Cl)c3ccc(Cl)cc3Cl)c2)cc1 (stereo not given) [Calmidazolium chloride] | < 9.85 µM | < 9.85 µM | < 9.85 µM | < 9.85 µM |
| COc1ccc2c(c1)OC[C@@H](Cc1ccc(OC)c(OC)c1)[C@H]2O [TETRAHYDROSAPPANONE A TRIMETHYL ETHER] | > 150 µM | > 150 µM | > 150 µM | > 150 µM |
| CCn1cc(C(=O)O)c(=O)c2cc3c(cc21)OCO3 [UTIBID] | 15.2 µM | < 9.85 µM | 15.5 µM | 15 µM |
| Cc1cc2c(C(C)C)c(O)c(O)c(C=O)c2c(O)c1-c1c(C)cc2c(C(C)C)c(O)c(O)c(C=O)c2c1O [GOSSYPOL] | < 9.85 µM | < 9.85 µM | < 9.85 µM | < 9.85 µM |
| Cc1onc(-c2ccccc2Cl)c1C(=O)N[C@@H]1C(=O)N2[C@@H]1SC(C)(C)[C@@H]2C(=O)O [TEGOPEN] | < 9.85 µM | < 9.85 µM | < 9.85 µM | < 9.85 µM |
| CC1(C)S[C@@H]2[C@H](NC(=O)[C@H](NC(=O)N3CCNC3=O)c3ccccc3)C(=O)N2[C@H]1C(=O)O [Azlocillin sodium salt] | < 9.85 µM | < 9.85 µM | < 9.85 µM | 27.7 µM |
| C[N+](C)(C)CC(O)CC(=O)[O-] (racemic) [DL-Carnitine hydrochloride] | > 150 µM | 139 µM | > 150 µM | > 150 µM |
| C[C@@H](O)[C@H]1C(=O)N2C(C(=O)[O-])=C(SC3Cn4cnc[n+]4C3)[C@H](C)[C@H]12 (stereo not given in full) [Biapenem] | 31.4 µM | 24.7 µM | 104 µM | 112 µM |
| CO[C@H]1/C=C/O[C@@]2(C)Oc3c(C)c(O)c4c(O)c(c5c(nc6cc(C)ccn65)c4c3C2=O)NC(=O)/C(C)=C\C=C\[C@H](C)[C@H](O)[C@@H](C)[C@@H](O)[C@@H](C)[C@H](OC(C)=O)[C@@H]1C [Rifaximin (Xifaxan)] | < 0.498 µM | < 0.498 µM | < 0.498 µM | < 0.498 µM |
| NC1CCN(c2c(F)cc3c(=O)c(C(=O)O)cn(C4CC4)c3c2Cl)C1 (stereo not given) | < 9.85 µM | < 9.85 µM | < 9.85 µM | < 9.85 µM |
| CCCCC(CC)CN=C(N)N=C(N)NCCCCCCNC(N)=NC(N)=NCC(CC)CCCC (stereo not given) [ALEXIDINE HYDROCHLORIDE] | < 9.85 µM | < 9.85 µM | < 9.85 µM | < 9.85 µM |
| C[C@@H](O[C@H]1OCCN(Cc2nn(P(=O)(O)O)c(=O)[nH]2)[C@H]1c1ccc(F)cc1)c1cc(C(F)(F)F)cc(C(F)(F)F)c1 [Fosaprepitant dimeglumine] | 17.2 µM | 31.6 µM | 53.4 µM | 49.3 µM |
| CC(C)c1c(O)ccc2c1CC[C@H]1[C@@](C)(CO)CCC[C@]21C [19-HYDROXYTOTAROL] | 107 µM | 65.8 µM | 77.4 µM | 111 µM |
